Laboratory results from patent publication US9145351B2, “Azole derivatives, methods for producing the same, intermediate thereof, agro-horticultural agents” (KUREHA CORPORATION, priority 2009, dated 2015).
Where two headings read alike, the source gives them in different places.

Legend:
Assay type in all cases: cell-based
Fusarium graminearum = assay: microbe, parasite or virus in culture; settings: Fusarium graminearum
Phaeosphaeria nodorum = assay: Plate medium fungicidal assay, wheat Septoria nodorum blotch P.n (Experimental Example 5); settings: Parastagonospora nodorum
Description: (§1) In this Experimental Example, the fungicidal effects of the inventive compounds on various phytopathogenic fungi for plants and hazardous microorganism for industrial materials were examined by the methods described below. Each inventive compound was dissolved in 2 ml of dimethyl sulfoxide. 0.6 ml of this solution was added to 60 nil of a PDA medium (potato dextrose agar medium) at about 60 degrees C., which was mixed thoroughly in a 100-ml conical flask, and poured into a dish, where it was solidified, thereby obtaining a plate medium containing the inventive compound at 50 mg/L and 5 mg/L. On the other hand, a subject microorganism previously cultured on a plate medium was cut out using a cork borer whose diameter was 4 mm, and inoculated to the test compound-containing plate medium described above. […] The growth degree of the microorganism on the test compound-containing plate medium thus observed was compared with the growth degree of the microorganism in the untreated group, and % mycelial growth inhibition was calculated by the following equation. R=100(dc−dt)/dc wherein R=% mycelial extension inhibition, dc=flora diameter in untreated plate, dt=flora diameter in treated plate. The results obtained as described above were evaluated as one of the 5 grades according to the following criteria. […] Wheat Septoria nodorum blotch (Phaeosphaeria nodorum) P.n

Fusarium oxysporum = assay: Plate medium fungicidal assay, cucumber fusarium wilt F.c (Experimental Example 5); settings: Fusarium oxysporum
Description: as §1, with “Cucumber fusarium wilt (Fusarium oxysporum) F.c” for “Wheat Septoria nodorum blotch (Phaeosphaeria nodorum) P.n”

Tyromyces palustris = assay: Plate medium assay, wood denaturing microorganism Oouzuratake (Experimental Example 5); settings: treatment at 50 mg/l, PDA plate medium; read-out: growth inhibition grade
Description: (§2) In this Experimental Example, the fungicidal effects of the inventive compounds on various phytopathogenic fungi for plants and hazardous microorganism for industrial materials were examined by the methods described below. Each inventive compound was dissolved in 2 ml of dimethyl sulfoxide. 0.6 ml of this solution was added to 60 nil of a PDA medium (potato dextrose agar medium) at about 60 degrees C., which was mixed thoroughly in a 100-ml conical flask, and poured into a dish, where it was solidified, thereby obtaining a plate medium containing the inventive compound at 50 mg/L and 5 mg/L. On the other hand, a subject microorganism previously cultured on a plate medium was cut out using a cork borer whose diameter was 4 mm, and inoculated to the test compound-containing plate medium described above. […] The growth degree of the microorganism on the test compound-containing plate medium thus observed was compared with the growth degree of the microorganism in the untreated group, and % mycelial growth inhibition was calculated by the following equation. R=100(dc-dt)/dc wherein R=% mycelial extension inhibition, dc=flora diameter in untreated plate, dt=flora diameter in treated plate. The results obtained as described above were evaluated as one of the 5 grades according to the following criteria.

Alternaria alternata = assay: Plate medium fungicidal assay, Alternaria blotch A.m (Experimental Example 5); settings: Alternaria alternata
Description: as §2, with “R=100(dc−dt)/dc” for “R=100(dc-dt)/dc”, “criteria. […] Alternaria blotch (Alternaria alternata) A.m” for “criteria.”

Trichoderma sp. = assay: Plate medium assay, industrial material deteriorating microorganism, Trichoderma (Experimental Example 5); settings: treatment at 50 mg/l, PDA plate medium, read-out: growth inhibition grade
Description: as §2

[1] = test system: Pseudocercoporella herpotrichoides; assay: Plate medium fungicidal assay, wheat eye spot P.h (Experimental Example 5)
Description: as §2, with “R=100(dc−dt)/dc” for “R=100(dc-dt)/dc”, “criteria. […] Wheat eye spot (Pseudocercoporella herpotrichoides) P.h” for “criteria.”

[2] = read-out: growth inhibition grade F.g
[3] = plate medium, 5 mg/L, read-out: growth inhibition grade P.n
[4] = plate medium, 50 mg/L, read-out: growth inhibition grade P.n
[5] = plate medium, 5 mg/L, read-out: growth inhibition grade F.c
[6] = plate medium, 50 mg/L, read-out: growth inhibition grade F.c
[7] = plate medium, 5 mg/L, read-out: growth inhibition grade A.m
[8] = plate medium, 50 mg/L, read-out: growth inhibition grade A.m
[9] = plate medium, 5 mg/L, read-out: growth inhibition grade P.h
[10] = plate medium, 50 mg/L, read-out: growth inhibition grade P.h
[11] = read-out: Growth inhibition grade, F.g
[12] = plate medium containing compound at 5 mg/L, read-out: Growth inhibition grade, P.n
[13] = plate medium containing compound at 50 mg/L, read-out: Growth inhibition grade, P.n
[14] = plate medium containing compound at 5 mg/L, read-out: Growth inhibition grade, F.c
[15] = plate medium containing compound at 50 mg/L, read-out: Growth inhibition grade, F.c
[16] = plate medium containing compound at 5 mg/L, read-out: Growth inhibition grade, A.m
[17] = plate medium containing compound at 50 mg/L, read-out: Growth inhibition grade, A.m
[18] = plate medium containing compound at 5 mg/L, read-out: Growth inhibition grade, P.h
[19] = plate medium containing compound at 50 mg/L, read-out: Growth inhibition grade, P.h

SMILES | inhibition at 5 µg/mL (Fusarium graminearum; [2]) [%] | inhibition at 50 µg/mL (Fusarium graminearum; [2]) [%] | inhibition at 5 µg/mL (Phaeosphaeria nodorum; [3]) [%] | inhibition at 50 µg/mL (Phaeosphaeria nodorum; [4]) [%] | inhibition at 5 µg/mL (Fusarium oxysporum; [5]) [%] | inhibition at 50 µg/mL (Fusarium oxysporum; [6]) [%] | inhibition at 50 µg/mL (Tyromyces palustris) [%] | inhibition at 5 µg/mL (Alternaria alternata; [7]) [%] | inhibition at 50 µg/mL (Alternaria alternata; [8]) [%] | inhibition at 50 µg/mL (Trichoderma sp.) [%] | inhibition at 5 µg/mL [1, 9] [%] | inhibition at 50 µg/mL [1, 10] [%] | inhibition at 5 µg/mL (Fusarium graminearum; [11]) [%] | inhibition at 50 µg/mL (Fusarium graminearum; [11]) [%] | inhibition at 5 µg/mL (Phaeosphaeria nodorum; [12]) [%] | inhibition at 50 µg/mL (Phaeosphaeria nodorum; [13]) [%] | inhibition at 5 µg/mL (Fusarium oxysporum; [14]) [%] | inhibition at 50 µg/mL (Fusarium oxysporum; [15]) [%] | inhibition at 5 µg/mL (Alternaria alternata; [16]) [%] | inhibition at 50 µg/mL (Alternaria alternata; [17]) [%] | other results
C[C@@]1(CCl)CC[C@H](Cc2ccc(Cl)cc2)[C@]1(O)Cn1cncn1 (racemic) [Compound I-401, (1RS,2RS,5RS)-5-(4-chlorobenzyl)-2-chloromethyl-2-methyl-1-[1,2,4]triazol-1-ylmethylcyclopentanol] | > 80 | > 80 | > 80 | > 80 | > 80 | > 80 | 60 to 80 | 60 to 80 | > 80 | 60 to 80 | > 80 | > 80 |  |  |  |  |  |  |  |  | 
C[C@@]1(CCCl)CC[C@@H](Cc2ccc(Cl)cc2)[C@]1(O)Cn1cncn1 (racemic) [Compound I-104, (1RS,2SR,5SR)-5-(4-chlorobenzyl)-2-(2-chloroethyl)-2-methyl-1-(1H-1,2,4-triazol-1-ylmethyl)cyclopentanol] | > 80 | > 80 | > 80 | > 80 | > 80 | > 80 | 60 to 80 | > 80 | > 80 | 60 to 80 | > 80 | > 80 |  |  |  |  |  |  |  |  | 
C[C@]1(CCl)CC[C@H](Cc2ccc(Cl)cc2)[C@]1(O)Cn1cncn1 (racemic) [Compound I-301, (1RS,2SR,5RS)-5-(4-chlorobenzyl)-2-chloromethyl-2-methyl-1-[1,2,4]triazol-1-ylmethylcyclopentanol] | > 80 | > 80 | > 80 | > 80 | > 80 | > 80 | 60 to 80 | > 80 | > 80 | 60 to 80 | > 80 | > 80 |  |  |  |  |  |  |  |  | 
C[C@]1(CCl)CC[C@@H](Cc2ccc(Cl)cc2)[C@]1(O)Cn1cncn1 (racemic) [Compound I-1, (1RS,2SR,5SR)-5-(4-chlorobenzyl)-2-chloromethyl-2-methyl-1-(1H-1,2,4-triazol-1-ylmethyl)cyclopentanol] | > 80 | > 80 | > 80 | > 80 | > 80 | > 80 | 60 to 80 | > 80 | > 80 | 60 to 80 | > 80 | > 80 | > 80 | > 80 | > 80 | > 80 | > 80 | > 80 | > 80 | > 80 | inhibition at 5 µg/mL [1, 18]: > 80%; inhibition at 50 µg/mL [1, 19]: > 80%
CC(Cl)=C[C@@]1(C)CC[C@@H](Cc2ccc(Cl)cc2)[C@]1(O)Cn1cncn1 (racemic) [Compound I-15, (1RS,2RS,5SR)-5-(4-chlorobenzyl)-2-(2-chloropropenyl)-2-methyl-1-(1H-1,2,4-triazol-1-ylmethyl)cyclopentanol] |  |  |  |  |  |  | 60 to 80 |  |  | 60 to 80 |  |  | > 80 | > 80 | > 80 | > 80 | > 80 | > 80 | > 80 | > 80 | inhibition at 5 µg/mL [1, 18]: > 80%; inhibition at 50 µg/mL [1, 19]: > 80%
O[C@]1(Cn2cncn2)[C@H](Cc2ccc(Cl)cc2)CC[C@@H]1C(F)(F)F (racemic) [Compound I-65, (1RS,2SR,5SR)-5-(4-chlorobenzyl)-2-trifluoromethyl-1-(1H-1,2,4-triazol-1-ylmethyl)cyclopentanol] |  |  |  |  |  |  | 60 to 80 |  |  | 60 to 80 |  |  | 60 to 80 | > 80 | 60 to 80 | > 80 | 40 to 60 | > 80 | 40 to 60 | > 80 | inhibition at 5 µg/mL [1, 18]: 40 to 60%; inhibition at 50 µg/mL [1, 19]: > 80%
C[C@]1(CCl)CC[C@@H](Cc2ccc(Cl)cc2)[C@]1(O)Cn1ccnc1 (racemic) [Compound I-244, (1RS,2SR,5SR)-5-(4-chlorobenzyl)-2-chloromethyl-2-methyl-1-imidazol-1-ylmethylcyclopentanol] | > 80 | > 80 | > 80 | > 80 | > 80 | > 80 | 60 to 80 | > 80 | > 80 | 60 to 80 | > 80 | > 80 |  |  |  |  |  |  |  |  | 
